This passage reports T/C results from PubChem BioAssay AID252 (DTP/NCI, 2004).

Values joined by “and” are separate entries in the source; they are usually repeats but may differ in a detail not shown here. Equal values may be shown once. Toxic doses and inconclusive results are not listed.

The test concerns BDF1 mice, intracerebral L1210 leukemia, survival T/C. Nature of the test: NCI In Vivo Anticancer Drug Screen. Data for tumor model L1210 Leukemia (intracerebral) in B6D2F1 (BDF1) mice. Particulars: higher = longer survival. The method in brief:
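Survival measured in treated and vehicle-control tumour-bearing mice; value = T/C.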

Setting [1] is: endpoint: mean survival time, dose: 12.0 mg/kg/injection, schedule: Q01DX001 (ip), vehicle: carboxymethylcellulose (CMC).
The mark [2] stands for this setting: endpoint: mean survival time, dose: 18.0 mg/kg/injection, schedule: Q01DX001 (ip), vehicle: carboxymethylcellulose (CMC).

As to `CC(=O)Nc1ccc2c(Nc3ccc(NS(C)(=O)=O)cc3)c3ccccc3nc2c1`, the T/C by setting is: (endpoint: mean survival time, dose: 1.5 mg/kg/injection, schedule: Q01DX009 (ip), vehicle: saline) 89 % of control; (endpoint: mean survival time, dose: 1.5 mg/kg/injection, schedule: Q01DX009 (sc), vehicle: saline) 98 % of control; (endpoint: mean survival time, dose: 3.0 mg/kg/injection, schedule: Q01DX009 (ip), vehicle: saline) 98 % of control; (endpoint: mean survival time, dose: 3.0 mg/kg/injection, schedule: Q01DX009 (sc), vehicle: saline) 105 % of control; (endpoint: mean survival time, dose: 6.25 mg/kg/injection, schedule: Q01DX009 (ip), vehicle: saline) 86 % of control; (endpoint: mean survival time, dose: 6.25 mg/kg/injection, schedule: Q01DX009 (sc), vehicle: saline) 109 % of control. Moreover, for the setting “endpoint: mean survival time, dose: 12.5 mg/kg/injection, schedule: Q01DX009 (sc), vehicle: saline”, the T/C was 98 % of control.
Take `O=C1C(N2CC2)=C(N2CC2)C(=O)C(N2CC2)=C1N1CC1`: the T/C is, setting by setting: (endpoint: mean survival time, dose: 0.02 mg/kg/injection, schedule: Q01DX009 (ip), vehicle: saline) 102 % of control; (endpoint: mean survival time, dose: 0.04 mg/kg/injection, schedule: Q01DX009 (ip), vehicle: saline) 120 % of control; (endpoint: mean survival time, dose: 0.16 mg/kg/injection, schedule: Q01DX009 (ip), vehicle: saline) 112 % of control.
Regarding `COc1cc([C@@H]2c3cc4c(cc3[C@@H](OC3OC5COC(C)OC5C(O)C3O)[C@H]3COC(=O)[C@H]23)OCO4)cc(OC)c1O` (stereo partly drawn), the T/C is 108 % of control (endpoint: mean survival time, dose: 2.0 mg/kg/injection, schedule: Q01DX009 (oral), vehicle: Klucel (hydroxypropylcellulose) (HPC)); 118 % of control (endpoint: mean survival time, dose: 4.0 mg/kg/injection, schedule: Q01DX009 (oral), vehicle: Klucel (hydroxypropylcellulose) (HPC)); 109 % of control (endpoint: mean survival time, dose: 12.0 mg/kg/injection, schedule: Q04DX003 (ip), vehicle: saline); 116 % of control (endpoint: mean survival time, dose: 16.0 mg/kg/injection, schedule: Q01DX009 (oral), vehicle: Klucel (hydroxypropylcellulose) (HPC)); 108 % of control (endpoint: mean survival time, dose: 18.0 mg/kg/injection, schedule: Q04DX003 (ip), vehicle: saline); 109 % of control (endpoint: mean survival time, dose: 27.0 mg/kg/injection, schedule: Q04DX003 (ip), vehicle: saline). The T/C is 94 % of control (endpoint: mean survival time, dose: 32.0 mg/kg/injection, schedule: Q01DX009 (oral), vehicle: Klucel (hydroxypropylcellulose) (HPC)); 118 % of control (endpoint: mean survival time, dose: 40.0 mg/kg/injection, schedule: Q04DX003 (ip), vehicle: saline); 110 % of control (endpoint: mean survival time, dose: 60.0 mg/kg/injection, schedule: Q04DX003 (ip), vehicle: saline).
As for `O=C(NO)c1ccncc1`, the T/C (endpoint: mean survival time, dose: 100.0 mg/kg/injection, schedule: Q01DX009 (ip), vehicle: water) was 91 % of control; the T/C (endpoint: mean survival time, dose: 200.0 mg/kg/injection, schedule: Q01DX009 (ip), vehicle: water) is 92 % of control; the T/C (endpoint: mean survival time, dose: 400.0 mg/kg/injection, schedule: Q01DX009 (ip), vehicle: water) was 86 % of control; the T/C (endpoint: mean survival time, dose: 600.0 mg/kg/injection, schedule: Q01DX009 (ip), vehicle: water) is 89 % of control.
For the compound `CC[n+]1ccc(Nc2ccc(NC(=O)c3ccc(Nc4cc[n+](CC)c5ccc(N)cc45)cc3)cc2)cc1`, the T/C (endpoint: mean survival time, dose: 1.0 mg/kg/injection, schedule: Q01DX009 (ip), vehicle: water) is 100 % of control; the T/C (endpoint: mean survival time, dose: 2.0 mg/kg/injection, schedule: Q01DX009 (ip), vehicle: water) is 102 % of control; the T/C (endpoint: mean survival time, dose: 4.0 mg/kg/injection, schedule: Q01DX009 (ip), vehicle: water) was 111 % of control; the T/C (endpoint: mean survival time, dose: 8.0 mg/kg/injection, schedule: Q01DX009 (ip), vehicle: water) is 97 % of control.
Regarding `CC1CC(NC(=O)N(CCCl)N=O)CC(C)(C)C1` (stereo not drawn), the T/C runs as follows: (endpoint: mean survival time, dose: 375.0 mg/kg/injection, schedule: Q01DX001 (ip), vehicle: other) 103 % of control; (endpoint: mean survival time, dose: 500.0 mg/kg/injection, schedule: Q01DX001 (ip), vehicle: other) 124 % of control; (endpoint: mean survival time, dose: 750.0 mg/kg/injection, schedule: Q01DX001 (ip), vehicle: other) 116 % of control.
Regarding `COc1ccc(NC(=O)N(C)N=O)cc1`, the T/C (endpoint: mean survival time, dose: 67.0 mg/kg/injection, schedule: Q01DX001 (ip), vehicle: carboxymethylcellulose (CMC)) is 94 % of control and the T/C (endpoint: mean survival time, dose: 100.0 mg/kg/injection, schedule: Q01DX001 (ip), vehicle: carboxymethylcellulose (CMC)) is 90 % of control.
`O=NN(CCCl)C(=O)Nc1cccc([N+](=O)[O-])c1`: the T/C by setting is: under setting [1], 102 % of control; under setting [2], 118 % of control; (endpoint: mean survival time, dose: 26.0 mg/kg/injection, schedule: Q01DX001 (ip), vehicle: carboxymethylcellulose (CMC)) 117 % of control; (endpoint: mean survival time, dose: 40.0 mg/kg/injection, schedule: Q01DX001 (ip), vehicle: carboxymethylcellulose (CMC)) 115 % of control.
In the case of `CN(Cc1cnc2nc(N)nc(N)c2n1)c1c(Cl)cc(C(=O)NC(CCC(=O)O)C(=O)O)cc1Cl` (stereo not drawn), the T/C (endpoint: mean survival time, dose: 285.0 mg/kg/injection, schedule: Q01DX001 (ip), vehicle: carboxymethylcellulose (CMC)) is 91 % of control; the T/C (endpoint: mean survival time, dose: 434.0 mg/kg/injection, schedule: Q01DX001 (ip), vehicle: carboxymethylcellulose (CMC)) was 90 % of control; the T/C (endpoint: mean survival time, dose: 647.0 mg/kg/injection, schedule: Q01DX001 (ip), vehicle: carboxymethylcellulose (CMC)) was 95 % of control.
For `O=C1C(Cl)=C(N2CC2)C(=O)C(Cl)=C1N1CC1`, the T/C was 98 % of control (endpoint: mean survival time, dose: 0.62 mg/kg/injection, schedule: Q01DX009 (ip), vehicle: Klucel (hydroxypropylcellulose) (HPC)); 96 % of control (endpoint: mean survival time, dose: 0.62 mg/kg/injection, schedule: Q01DX009 (ip), vehicle: saline); 98 % of control (endpoint: mean survival time, dose: 1.25 mg/kg/injection, schedule: Q01DX009 (ip), vehicle: Klucel (hydroxypropylcellulose) (HPC)); 120 % of control and 96 % of control (endpoint: mean survival time, dose: 1.25 mg/kg/injection, schedule: Q01DX009 (ip), vehicle: saline); 98 % of control (endpoint: mean survival time, dose: 2.5 mg/kg/injection, schedule: Q01DX009 (ip), vehicle: Klucel (hydroxypropylcellulose) (HPC)); 96 % of control (endpoint: mean survival time, dose: 5.0 mg/kg/injection, schedule: Q01DX009 (ip), vehicle: Klucel (hydroxypropylcellulose) (HPC)). Besides, the T/C was 96 % of control (endpoint: mean survival time, dose: 10.0 mg/kg/injection, schedule: Q01DX009 (ip), vehicle: Klucel (hydroxypropylcellulose) (HPC)); 90 % of control (endpoint: mean survival time, dose: 20.0 mg/kg/injection, schedule: Q01DX009 (ip), vehicle: Klucel (hydroxypropylcellulose) (HPC)); 87 % of control (endpoint: mean survival time, dose: 20.0 mg/kg/injection, schedule: Q01DX009 (ip), vehicle: saline).
As for `CC1CCC(NC(=O)N(CCF)N=O)CC1` (stereo not drawn), the T/C is 117 % of control (endpoint: mean survival time, dose: 20.0 mg/kg/injection, schedule: Q01DX001 (ip), vehicle: other); 212 % of control (endpoint: mean survival time, dose: 44.0 mg/kg/injection, schedule: Q01DX001 (ip), vehicle: other); 341 % of control (endpoint: mean survival time, dose: 66.0 mg/kg/injection, schedule: Q01DX001 (ip), vehicle: other).
Regarding `O=NN(CCCl)C(=O)Nc1cccc2cccnc12`, the T/C was 101 % of control (endpoint: mean survival time, dose: 1.0 mg/kg/injection, schedule: Q01DX001 (ip), vehicle: carboxymethylcellulose (CMC)); 103 % of control (endpoint: mean survival time, dose: 1.5 mg/kg/injection, schedule: Q01DX001 (ip), vehicle: carboxymethylcellulose (CMC)); 104 % of control (endpoint: mean survival time, dose: 2.6 mg/kg/injection, schedule: Q01DX001 (ip), vehicle: carboxymethylcellulose (CMC)); 105 % of control (endpoint: mean survival time, dose: 4.0 mg/kg/injection, schedule: Q01DX001 (ip), vehicle: carboxymethylcellulose (CMC)); 101 % of control (endpoint: mean survival time, dose: 6.0 mg/kg/injection, schedule: Q01DX001 (ip), vehicle: carboxymethylcellulose (CMC)); 102 % of control (endpoint: mean survival time, dose: 9.0 mg/kg/injection, schedule: Q01DX001 (ip), vehicle: carboxymethylcellulose (CMC)). Further, the T/C is 98 % of control under setting [1] and 98 % of control under setting [2].
Regarding `COc1cccnc1/C=N/NC(N)=S`, the T/C is 101 % of control (endpoint: median survival time, dose: 1.5 mg/kg/injection, schedule: Q01DX009 (ip), vehicle: saline with Tween-80); 103 % of control (endpoint: median survival time, dose: 3.0 mg/kg/injection, schedule: Q01DX009 (ip), vehicle: saline with Tween-80); 110 % of control (endpoint: median survival time, dose: 6.0 mg/kg/injection, schedule: Q01DX009 (ip), vehicle: saline with Tween-80); 153 % of control (endpoint: median survival time, dose: 12.0 mg/kg/injection, schedule: Q01DX009 (ip), vehicle: saline with Tween-80).
